Data: the NIST ThermoML archive (doi:10.1021/je700293s)
Numbers after ± are expanded uncertainties.

Assay: xn = mol fraction of the nth substance listed
Conditions: 101 kPa, Liquid, Capillary tube (Ostwald / Ubbelohde) method

CCCCCCCC(=O)OCC(COC(=O)CCCCCCC)OC(=O)CCCCCCC [1,2,3-propanetriol trioctanoate] + CCCCCCCCCC(=O)O
kinematic viscosity [m2/s]
Conditions | 303.15 K | 313.15 K | 323.15 K | 333.15 K | 343.15 K | 353.15 K | 363.15 K
x2 = 0.4763 | 1.48e-05 ± 4.9e-07 | 1.05e-05 ± 3.5e-07 | 7.89e-06 ± 2.6e-07 | 6.15e-06 ± 2e-07 | 5.12e-06 ± 1.7e-07 | 4.13e-06 ± 1.4e-07 | 3.53e-06 ± 1.2e-07
x2 = 0.7423 | 1.29e-05 ± 4.2e-07 | 9.46e-06 ± 3.1e-07 | 7.16e-06 ± 2.4e-07 | 5.66e-06 ± 1.9e-07 | 4.57e-06 ± 1.5e-07 | 3.88e-06 ± 1.3e-07 | 3.18e-06 ± 1.1e-07
x2 = 0.8902 | 8.98e-06 ± 2.9e-07 | 7.83e-06 ± 2.6e-07 | 6.09e-06 ± 2e-07 | 4.9e-06 ± 1.6e-07 | 3.99e-06 ± 1.3e-07 | 3.24e-06 ± 1.1e-07 | 2.58e-06 ± 9e-08

CCCCCCCC/C=C\CCCCCCCC(=O)O [(Z)-9-octadecenoic acid] + CCCCCCCC/C=C\CCCCCCCC(=O)OCC(COC(=O)CCCCCCC/C=C\CCCCCCCC)OC(=O)CCCCCCC/C=C\CCCCCCCC
x1 = 0.758
Conditions | kinematic viscosity [m2/s]
293.15 K | 6.78e-05 ± 2.3e-06
303.15 K | 4.49e-05 ± 1.5e-06
313.15 K | 3.13e-05 ± 1e-06
323.15 K | 2.28e-05 ± 7.6e-07
333.15 K | 1.62e-05 ± 5.4e-07
343.15 K | 1.26e-05 ± 4.2e-07
353.15 K | 1e-05 ± 3.3e-07
363.15 K | 8.22e-06 ± 2.7e-07

CCCCCCCC/C=C\CCCCCCCC(=O)O [(Z)-9-octadecenoic acid] + CCCCCCCCCC(=O)O
kinematic viscosity [m2/s]
Conditions | 303.15 K | 313.15 K | 323.15 K | 333.15 K | 343.15 K | 353.15 K | 363.15 K
x2 = 0.3533 | 1.99e-05 ± 6.6e-07 | 1.45e-05 ± 4.8e-07 | 1.09e-05 ± 3.6e-07 | 8.52e-06 ± 2.8e-07 | 6.83e-06 ± 2.3e-07 | 5.63e-06 ± 1.9e-07 | 4.69e-06 ± 1.5e-07
x2 = 0.6211 | 1.45e-05 ± 4.8e-07 | 1.08e-05 ± 3.6e-07 | 8.25e-06 ± 2.7e-07 | 6.39e-06 ± 2.1e-07 | 5.17e-06 ± 1.7e-07 | 4.27e-06 ± 1.4e-07 | 3.36e-06 ± 1.1e-07

CCCCC/C=C\C/C=C\CCCCCCCC(=O)O [(Z,Z)-9,12-octadecadienoic acid] + CCCCCCCC/C=C\CCCCCCCC(=O)OCC(COC(=O)CCCCCCC/C=C\CCCCCCCC)OC(=O)CCCCCCC/C=C\CCCCCCCC
x1 = 0.7576
Conditions | kinematic viscosity [m2/s]
303.15 K | 2.96e-05 ± 9.8e-07
313.15 K | 2.13e-05 ± 7.1e-07
323.15 K | 1.59e-05 ± 5.3e-07
333.15 K | 1.23e-05 ± 4.1e-07
343.15 K | 9.76e-06 ± 3.2e-07
353.15 K | 7.91e-06 ± 2.6e-07
363.15 K | 6.52e-06 ± 2.2e-07

CCCCC/C=C\C/C=C\CCCCCCCC(=O)OCC(COC(=O)CCCCCCC/C=C\C/C=C\CCCCC)OC(=O)CCCCCCC/C=C\C/C=C\CCCCC [trilinolein] + CCCCC/C=C\C/C=C\CCCCCCCC(=O)O
x2 = 0.7536
Conditions | kinematic viscosity [m2/s]
303.15 K | 2.55e-05 ± 8.4e-07
313.15 K | 1.85e-05 ± 6.2e-07
323.15 K | 1.31e-05 ± 4.4e-07
333.15 K | 9.96e-06 ± 3.3e-07
343.15 K | 7.98e-06 ± 2.6e-07
353.15 K | 6.83e-06 ± 2.2e-07
363.15 K | 5.69e-06 ± 1.9e-07

CCCCC/C=C\C/C=C\CCCCCCCC(=O)OCC(COC(=O)CCCCCCC/C=C\C/C=C\CCCCC)OC(=O)CCCCCCC/C=C\C/C=C\CCCCC [trilinolein] + CCCCCCCC/C=C\CCCCCCCC(=O)O
x2 = 0.7564
Conditions | kinematic viscosity [m2/s]
293.15 K | 4.14e-05 ± 1.4e-06
303.15 K | 2.82e-05 ± 9.4e-07
313.15 K | 2.07e-05 ± 6.9e-07
323.15 K | 1.48e-05 ± 4.9e-07
333.15 K | 1.15e-05 ± 3.8e-07
343.15 K | 9.32e-06 ± 3.1e-07
353.15 K | 7.62e-06 ± 2.5e-07
363.15 K | 6.38e-06 ± 2.1e-07
